The text below walks through data of publication PMC9653470 (2022).

“Also recorded” adds a separate entry of the source.

A short description of the data set: fresh human plasma. The settings on record: 37 °C, up to 24 hours.

H2N-USPGYS-NH2: the fragment found entry is listed as “a, major; also recorded: b, major”.
